Experimental data: patent US11584737B2, “Heterocyclic compound” (TAKEDA PHARMACEUTICAL COMPANY LIMITED, priority 2018, dated 2023)

Assays:
[1] = molecular target: CDK12/CycK complex (Homo sapiens, UniProt Q9NYV4); experiment: Measurement of CDK12 inhibitory activity by binding assay (TR-FRET, 66 nM BODIPY-FL-labeled AT-7519); details: inhibitory rate against CDK12 at 1 μM test compound, 66 nM BODIPY-FL-labeled AT-7519, 2 nM CDK12/CycK
Summary of the method: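 His-tagged CDK12/CycK (2 nM) premixed with 66 nM BODIPY-FL-AT-7519 tracer, 0.2 nM Tb-streptavidin and 0.4 nM biotin-anti-His, then incubated with compound 120 min at room temperature. Tracer displacement read as BODIPY-FL/Tb TR-FRET ratio; percent inhibition normalized to no-compound control and 3 μM AT-7519 blank.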

[2] = system: A2780 intracellular CTD pSer2; experiment: CTD pSer2 measurement using human ovarian cancer cell A2780 and In-Cell Western method; assay type: cell-based; details: inhibitory rate against A2780 intracellular CTD pSer2 at 1 μM test compound, 4 hr
Method: Experimental Example 3: CTD pSer2 Measurement Using Human Ovarian Cancer Cell A2780 and In-Cell Western Method
A2780 cells (ATCC) were seeded in a 96 well plate at 1.8×10^4 cells/well, and the cells were cultured overnight in a cell culture medium RPMI1640 (FUJIFILM Wako Pure Chemical Corporation) containing 10% FBS (fetal bovine serum) and 1% penicillin/streptomycin. A test compound dissolved in a cell medium was added, and the mixture was stood for 4 hr in a CO2 incubator (37° C.). The cells were fixed with ALTFiX (Falma) for 30 min, and washed 3 times with a washing buffer (20 mM Tris-HCl (pH 7.5), 500 mM NaCl, 0.1% Tween20). 0.1% Triton-X-100 diluted with PBS(−) was added and the mixture was incubated at room temperature for 15 min. Thereafter, a blocking buffer (LI-COR) was added, and the mixture was incubated at room temperature for 1 hr. An anti-CTD pS2 antibody (Abcam) suspended in an antibody diluent (blocking buffer: PBS(−)-diluted 0.1% Tween20=1:1) was added, and the mixture was incubated at room temperature for 1 hr. The mixture was […] with a washing buffer, IRDye800CW-labeled anti-goat antibody (LI-COR) was added, and the mixture was incubated at room temperature for 1 hr. The mixture was washed 3 times with a washing buffer, and the fluorescence wavelength at 800 nm was measured by Aerius (LI-COR).
The inhibitory rate (%) of the test compound against A2780 intracellular CTD pSer2 was calculated by the following formula. Inhibitory rate (%)=(1−(count of test compound−blank)÷(control−blank))×100
The count of the A2780 cell under compound non-addition conditions is indicated as control, and the count under compound non-addition and primary antibody non-addition conditions is indicated as blank.
The results measured by the above-mentioned method (inhibitory rate of the signal value at 1 μM test compound relative to control) are shown below.

[3] = system: A2780 cells; experiment: In vitro proliferation suppression test (CellTiter-Glo); assay type: cell-based, human; details: Homo sapiens, 72 h, A2780 cell proliferation inhibitory rate at 1 μM test compound, three days
Method: Experimental Example 4: In Vitro Proliferation Suppression Test
The proliferation suppressive activity of compound in A2780 cells was evaluated by the following method.
A2780 cells were seeded in a 384-well white plate at a cell density of 1,000 cells/40 μL/well or a 96-well white plate at a cell density of 1,000 cells/90 μL/well using an assay medium (RPMI1640 medium containing 10% fetal bovine serum (FUJIFILM Wako Pure Chemical Corporation)) and incubated at 37° C. in 5% CO2.
The next day, a test compound dissolved in dimethyl sulfoxide (DMSO) was diluted with an assay medium, the obtained compound solution was added by 40 μL/well or 10 μL/well to each well of the plate containing A2780 cells and the mixture was incubated (test compound addition group). In addition, a similar reaction was performed without adding the test compound (test compound non-addition group).
Three days later, 80 μL or 100 μL of CellTiter-Glo reagent (Promega) was added, and the mixture was stirred for 10 min. Thereafter, the luminescence of each well was measured by ARVO-MX multilabel counter (Perkin Elmer Inc.).
The proliferation inhibitory rate (%) of each test compound against A2780 cells was calculated by the following calculation formula. Proliferation inhibitory rate (%)=(1−luminescence of test compound addition group÷luminescence of test compound non-addition group)×100
The A2780 cell proliferation inhibitory rate (%) of 1 μM test compound is shown below.

[4] = molecular target: CDK12/CycK enzyme (Homo sapiens, UniProt Q9NYV4); experiment: Measurement of CDK12/CycK inhibitory activity (ULight-4E-BP1 peptide phosphorylation, LANCE); assay type: biochemical; details: inhibitory rate against CDK12/CycK at 1 μM test compound, ATP 10 μM or 500 μM
Sequence of CDK12/CycK enzyme (Q9NYV4 whole entry, species assumed): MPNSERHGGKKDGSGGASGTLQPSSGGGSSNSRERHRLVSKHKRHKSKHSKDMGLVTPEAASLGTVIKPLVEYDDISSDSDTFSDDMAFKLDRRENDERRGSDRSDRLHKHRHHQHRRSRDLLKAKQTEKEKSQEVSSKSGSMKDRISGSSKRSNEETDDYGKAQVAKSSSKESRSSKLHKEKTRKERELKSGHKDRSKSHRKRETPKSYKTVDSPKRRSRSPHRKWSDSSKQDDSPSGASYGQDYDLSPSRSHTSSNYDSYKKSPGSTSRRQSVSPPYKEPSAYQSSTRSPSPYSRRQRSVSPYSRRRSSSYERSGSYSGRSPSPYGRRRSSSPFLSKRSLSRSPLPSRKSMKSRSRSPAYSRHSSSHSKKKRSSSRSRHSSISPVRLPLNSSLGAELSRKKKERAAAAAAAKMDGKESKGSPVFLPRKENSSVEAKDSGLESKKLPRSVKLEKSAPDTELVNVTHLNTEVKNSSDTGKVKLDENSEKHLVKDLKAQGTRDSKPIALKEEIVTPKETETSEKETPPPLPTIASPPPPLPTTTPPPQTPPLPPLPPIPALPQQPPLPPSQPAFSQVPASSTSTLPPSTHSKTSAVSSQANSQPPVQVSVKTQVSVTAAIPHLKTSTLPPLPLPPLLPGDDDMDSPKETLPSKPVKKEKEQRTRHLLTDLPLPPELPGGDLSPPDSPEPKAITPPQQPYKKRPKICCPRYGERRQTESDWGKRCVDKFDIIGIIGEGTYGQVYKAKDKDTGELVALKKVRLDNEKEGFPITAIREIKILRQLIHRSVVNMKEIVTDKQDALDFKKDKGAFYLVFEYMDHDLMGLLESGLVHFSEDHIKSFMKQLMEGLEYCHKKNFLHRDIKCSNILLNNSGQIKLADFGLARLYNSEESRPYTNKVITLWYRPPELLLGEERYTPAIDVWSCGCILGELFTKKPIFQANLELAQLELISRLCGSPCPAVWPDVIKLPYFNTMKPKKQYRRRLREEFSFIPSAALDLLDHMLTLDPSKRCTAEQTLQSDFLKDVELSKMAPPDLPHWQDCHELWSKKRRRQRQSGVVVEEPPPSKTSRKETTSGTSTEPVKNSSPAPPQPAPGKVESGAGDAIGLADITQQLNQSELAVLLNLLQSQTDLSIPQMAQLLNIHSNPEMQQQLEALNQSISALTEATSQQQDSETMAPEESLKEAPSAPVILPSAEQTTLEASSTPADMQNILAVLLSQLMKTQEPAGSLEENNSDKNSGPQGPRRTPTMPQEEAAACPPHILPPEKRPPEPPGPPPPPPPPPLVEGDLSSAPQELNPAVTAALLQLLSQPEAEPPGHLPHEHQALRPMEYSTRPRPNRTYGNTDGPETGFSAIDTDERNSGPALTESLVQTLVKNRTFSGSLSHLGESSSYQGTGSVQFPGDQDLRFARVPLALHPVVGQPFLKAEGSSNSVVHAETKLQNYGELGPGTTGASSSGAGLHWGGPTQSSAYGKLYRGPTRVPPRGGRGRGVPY
Sequence of CDK12/CycK enzyme (O75909 whole entry partner, species assumed): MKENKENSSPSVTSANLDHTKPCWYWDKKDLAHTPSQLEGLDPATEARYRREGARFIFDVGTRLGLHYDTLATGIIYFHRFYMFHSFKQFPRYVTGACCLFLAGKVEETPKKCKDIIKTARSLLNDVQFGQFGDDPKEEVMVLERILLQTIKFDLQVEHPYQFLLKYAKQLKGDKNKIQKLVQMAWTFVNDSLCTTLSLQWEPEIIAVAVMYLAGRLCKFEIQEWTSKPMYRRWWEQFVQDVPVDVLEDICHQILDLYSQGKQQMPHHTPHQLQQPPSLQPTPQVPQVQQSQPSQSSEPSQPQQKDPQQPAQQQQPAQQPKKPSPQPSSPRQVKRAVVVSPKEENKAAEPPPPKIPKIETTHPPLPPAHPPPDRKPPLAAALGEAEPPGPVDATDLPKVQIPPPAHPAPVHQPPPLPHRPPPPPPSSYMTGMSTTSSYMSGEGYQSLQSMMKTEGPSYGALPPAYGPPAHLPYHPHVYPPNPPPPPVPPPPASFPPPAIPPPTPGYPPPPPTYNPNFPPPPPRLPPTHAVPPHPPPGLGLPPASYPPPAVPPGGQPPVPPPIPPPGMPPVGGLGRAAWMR
Method: Experimental Example 2: Measurement of CDK12/CycK Inhibitory Activity
A test compound dissolved in DMSO was added to a reaction solution (50 mM HEPES (pH 7.5), 10 mM MgCl2, 1 mM DTT, 0.01% Tween 20, 0.01% BSA) containing CDK12/CycK enzyme and ULight-labeled eIF4E-binding protein 1 (4E-BP1) (Thr37/Thr46) peptide (PerkinElmer), and the mixture was reacted at room temperature for 60 min. […] was added to give an ATP solution with a final concentration of 10 μM or 500 μM to start the enzyme reaction, and the mixture was reacted at room temperature for 60 min. A LANCE Detection buffer (PerkinElmer) containing europium-labeled anti-phosphorylation 4E-BP1 (Thr37/Thr46) antibody (PerkinElmer) and EDTA (final concentration 10 mM) was added to discontinue the reaction. After standing for 60 min, time decomposition fluorescence value (excitation 320 nm, emission 615 nm, 665 nm) was measured by Envision (PerkinElmer). The inhibitory rate (%) of the test compound against CDK12/CyclinK was calculated by the following formula. Inhibitory rate (%)=(1−(count of test compound−blank)÷(control−blank))×100
The count of the CDK12 enzyme reaction mixture under compound non-addition conditions is indicated as control, and the count under compound non-addition and CDK12/CycK enzyme non-addition conditions is indicated as blank.
The results measured by the above-mentioned method (inhibitory rate (%) of the signal value at 1 μM test compound relative to control is shown below.

Sequence of CDK12/CycK complex (Q9NYV4 whole entry, species assumed): as the sequence (Q9NYV4 whole entry, species assumed) above
Sequence of CDK12/CycK complex (O75909 whole entry partner, species assumed): as the sequence (O75909 whole entry partner, species assumed) above

Row | SMILES | inhibition at 1 µM [1] | inhibition at 1 µM [4] | inhibition at 1 µM [2] | inhibition at 1 µM [3]
1 | Cn1cc(-c2ccc(N(C(=O)NCc3ccccc3)[C@H]3CC[C@H](Nc4ncc(C#N)c(NC5COC5)n4)CC3)cc2)cn1 [Example 527, 3-benzyl-1-(trans-4-((5-cyano-4-(oxetan-3-ylamino)pyrimidin-2-yl)amino)cyclohexyl)-1-(4-(1-methyl-1H-pyrazol-4-yl)phenyl)urea] | 102% | 99% | 70% | 97%
2 | Cn1ccc(-c2ccc(N(C(=O)NCc3ccccc3)[C@H]3CC[C@H](Nc4ncc(C#N)c(NC5COC5)n4)CC3)cc2)cc1=O [Example 530, 3-benzyl-1-(trans-4-((5-cyano-4-(oxetan-3-ylamino)pyrimidin-2-yl)amino)cyclohexyl)-1-(4-(1-methyl-2-oxo-1,2-dihydropyridin-4-yl)phenyl) urea] | 100% | 104% | 64% | 97%
3 | COc1ncc(-c2ccc(N(C(=O)NCc3ccccc3)[C@H]3CC[C@H](Nc4ncc(C#N)c(NC5COC5)n4)CC3)nc2)cn1 [Example 553, 3-benzyl-1-(trans-4-((5-cyano-4-(oxetan-3-ylamino)pyrimidin-2-yl)amino)cyclohexyl)-1-(5-(2-methoxypyrimidin-5-yl)pyridin-2-yl)urea] | 100% | 106% | 74% | 98%
4 | COc1ncc(-c2ccc(N(C(=O)NCc3ccccc3)[C@H]3CC[C@H](Nc4ncc(C#N)c(-c5cn[nH]c5C)n4)CC3)nc2)cn1 [Example 577, 3-benzyl-1-(trans-4-((5-cyano-4-(5-methyl-1H-pyrazol-4-yl)pyrimidin-2-yl)amino)cyclohexyl)-1-(5-(2-methoxypyrimidin-5-yl)pyridin-2-yl)urea] | 88% | 98% | 87% | 94%
5 | COc1ncc(-c2ccc(N(C(=O)OCc3ccccc3)[C@H]3CC[C@H](Nc4ncc(C#N)c(NC5COC5)n4)CC3)nc2)cn1 [Example 581, benzyl (trans-4-((5-cyano-4-(oxetan-3-ylamino)pyrimidin-2-yl)amino)cyclohexyl) (5-(2-methoxypyrimidin-5-yl)pyridin-2-yl)carbamate] | 88% | 102% | 70% | 99%
6 | COc1ncc(-c2ccc(N(C(=O)NCc3ccccc3F)[C@H]3CC[C@H](Nc4ncc(C#N)c(NC5COC5)n4)CC3)nc2)cn1 [Example 582, 1-(trans-4-((5-cyano-4-(oxetan-3-ylamino)pyrimidin-2-yl)amino)cyclohexyl)-3-(2-fluorobenzyl)-1-(5-(2-methoxypyrimidin-5-yl)pyridin-2-yl)urea] | 91% | 110% | 72% | 97%

The next lines start with results.

Row | inhibition at 1 µM [1] | inhibition at 1 µM [4] | SMILES | inhibition at 1 µM [2] | inhibition at 1 µM [3]
7 | 96% | 95% | Cn1cc(-c2ccc(N(C(=O)NCc3ccccc3)[C@H]3CC[C@H](Nc4ncc(C#N)c(-c5[nH]ncc5Cl)n4)CC3)nc2)cn1 [Example 536, 3-benzyl-1-(trans-4-((4-(4-chloro-1H-pyrazol-5-yl)-5-cyanopyrimidin-2-yl)amino)cyclohexyl)-1-(5-(1-methyl-1H-pyrazol-4-yl)pyridin-2-yl)urea] | 82% | 91%
8 | 99% | 109% | Cn1cc(-c2cnc(N(C(=O)NCc3ccccc3)[C@H]3CC[C@H](Nc4ncc(C#N)c(NC5COC5)n4)CC3)cn2)cn1 [Example 539, 3-benzyl-1-(trans-4-((5-cyano-4-(oxetan-3-ylamino)pyrimidin-2-yl)amino)cyclohexyl)-1-(5-(1-methyl-1H-pyrazol-4-yl)pyrazin-2-yl)urea] | 71% | 96%
9 | 102% | 100% | Cn1cc(-c2ccc(N(C(=O)NCc3ccccc3)[C@H]3CC[C@H](Nc4ncc(C(F)(F)F)c(N5CCC6(COC6)C5)n4)CC3)nc2)cn1 [Example 566, 3-benzyl-1-(5-(1-methyl-1H-pyrazol-4-yl)pyridin-2-yl)-1-(trans-4-((4-(2-oxa-6-azaspiro[3.4]octa-6-yl)-5-(trifluoromethyl)pyrimidin-2-yl)amino)cyclohexyl)urea] | 72% | 98%
10 | 103% | 99% | Cn1cc(-c2ccc(N(C(=O)NCc3ccccc3)[C@H]3CC[C@H](Nc4ncc(C(F)(F)F)c(NC5COC5)n4)CC3)nc2)cn1 [Example 574, 3-benzyl-1-(5-(1-methyl-1H-pyrazol-4-yl)pyridin-2-yl)-1-(trans-4-((4-(oxetan-3-ylamino)-5-(trifluoromethyl)pyrimidin-2-yl)amino)cyclohexyl)urea] | 83% | 97%
11 | 101% | 97% | Cn1cc(-c2cnc(N(C(=O)NCc3ccccc3)[C@H]3CC[C@H](Nc4ncc(C#N)c(NC5COC5)n4)CC3)nc2)cn1 [Example 575, 3-benzyl-1-(trans-4-((5-cyano-4-(oxetan-3-ylamino)pyrimidin-2-yl)amino)cyclohexyl)-1-(5-(1-methyl-1H-pyrazol-4-yl)pyrimidin-2-yl)urea] | 63% | 99%
12 | 99% | 100% | COc1ncc(-c2ccc(N(C(=O)NCc3ccccc3)[C@H]3CC[C@H](Nc4ncc(C(F)(F)F)c(OC5COC5)n4)CC3)nc2)cn1 [Example 588, 3-benzyl-1-(5-(2-methoxypyrimidin-5-yl)pyridin-2-yl)-1-(trans-4-((4-(oxetan-3-yloxy)-5-(trifluoromethyl)pyrimidin-2-yl)amino)cyclohexyl)urea] | 75% | 98%
13 | 100% | 115% | COc1ncc(-c2ccc(N(C(=O)NCc3ccccc3)[C@H]3CC[C@H](Nc4ncc(C(F)(F)F)c(NC5COC5)n4)CC3)nc2)cn1 [Example 589, 3-benzyl-1-(5-(2-methoxypyrimidin-5-yl)pyridin-2-yl)-1-(trans-4-((4-(oxetan-3-ylamino)-5-(trifluoromethyl)pyrimidin-2-yl)amino)cyclohexyl) urea] | 78% | 97%
